Test results published in PubChem BioAssay AID330 (DTP/NCI, 2004).
Values joined by “and” are separate entries in the source; they are usually repeats but may differ in a detail not shown here. Equal values may be shown once. Toxic doses and inconclusive results are not listed. How the source made its calls: active means survival T/C of 150% or more; inactive means T/C below 125% in these data.

Test system: P388 leukemia ip, CD2F1 mice, survival T/C
Assay: NCI In Vivo Anticancer Drug Screen. Data for tumor model P388 Leukemia (intraperitoneal) in CD2F1 (CDF1) mice
Details: endpoint: median survival time, higher = longer survival
Outline: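 Mice carrying the transplanted tumor received test compound or vehicle. Survival was recorded in each group, and the value is the treated-group measurement divided by that of the vehicle-treated control group.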

[1] = dose: 12.5 mg/kg/injection, schedule: Q01DX009 (ip), vehicle: saline
[2] = dose: 25.0 mg/kg/injection, schedule: Q01DX009 (ip), vehicle: saline
[3] = dose: 50.0 mg/kg/injection, schedule: Q01DX009 (ip), vehicle: saline with Tween-80
[4] = dose: 100.0 mg/kg/injection, schedule: Q01DX009 (ip), vehicle: saline with Tween-80
[5] = dose: 200.0 mg/kg/injection, schedule: Q01DX009 (ip), vehicle: saline with Tween-80
[6] = dose: 50.0 mg/kg/injection, schedule: Q01DX009 (ip), vehicle: saline
[7] = dose: 100.0 mg/kg/injection, schedule: Q01DX009 (ip), vehicle: saline
[8] = dose: 6.25 mg/kg/injection, schedule: Q01DX005 (ip), vehicle: saline with Tween-80
[9] = dose: 12.5 mg/kg/injection, schedule: Q01DX005 (ip), vehicle: saline with Tween-80
[10] = dose: 25.0 mg/kg/injection, schedule: Q01DX005 (ip), vehicle: saline with Tween-80
[11] = dose: 25.0 mg/kg/injection, schedule: Q01DX005 (ip), vehicle: Klucel (hydroxypropylcellulose) (HPC)
[12] = dose: 50.0 mg/kg/injection, schedule: Q01DX005 (ip), vehicle: Klucel (hydroxypropylcellulose) (HPC)
[13] = dose: 50.0 mg/kg/injection, schedule: Q01DX005 (ip), vehicle: saline with Tween-80
[14] = dose: 100.0 mg/kg/injection, schedule: Q01DX005 (ip), vehicle: Klucel (hydroxypropylcellulose) (HPC)
[15] = dose: 200.0 mg/kg/injection, schedule: Q01DX005 (ip), vehicle: Klucel (hydroxypropylcellulose) (HPC)
[16] = dose: 200.0 mg/kg/injection, schedule: Q01DX009 (ip), vehicle: saline
[17] = dose: 50.0 mg/kg/injection, schedule: Q01DX005 (ip), vehicle: saline
[18] = dose: 100.0 mg/kg/injection, schedule: Q01DX005 (ip), vehicle: saline
[19] = dose: 200.0 mg/kg/injection, schedule: Q01DX005 (ip), vehicle: saline

Measured: T/C

COc1cccc(C(=O)C(CN(C)C)CN(C)C)c1
inactive: dose: 3.12 mg/kg/injection, schedule: Q01DX009 (ip), vehicle: saline 100 % of control and 105 % of control | dose: 3.13 mg/kg/injection, schedule: Q01DX009 (ip), vehicle: saline 106 % of control | dose: 6.25 mg/kg/injection, schedule: Q01DX009 (ip), vehicle: saline 103 % of control and 115 % of control and 97 % of control | [1] 108 % of control and 112 % of control and 123 % of control | [2] 103 % of control and 123 % of control

C[C@]12CC[C@H]3[C@@H](CCC4=C[C@@H](OC5OCC(OC6OC(CO)C(O)C(O)C6O)C(O)C5O)CC[C@@]43C=O)[C@@]1(O)CCC2C1=CC(=O)OC1 (some centres undefined)
inactive: dose: 0.16 mg/kg/injection, schedule: Q01DX009 (ip), vehicle: saline 105 % of control | dose: 0.25 mg/kg/injection, schedule: Q01DX009 (ip), vehicle: saline with Tween-80 95 % of control | dose: 0.31 mg/kg/injection, schedule: Q01DX009 (ip), vehicle: saline 108 % of control | dose: 0.5 mg/kg/injection, schedule: Q01DX009 (ip), vehicle: saline with Tween-80 107 % of control and 95 % of control | dose: 0.63 mg/kg/injection, schedule: Q01DX009 (ip), vehicle: saline 103 % of control | dose: 1.0 mg/kg/injection, schedule: Q01DX009 (ip), vehicle: saline with Tween-80 117 % of control and 97 % of control | dose: 1.25 mg/kg/injection, schedule: Q01DX009 (ip), vehicle: saline 103 % of control

O=C(O)Cc1ccc2c(c1)C(=O)c1ccccc1CO2
inactive: [3] 94 % of control | [4] 103 % of control | [5] 100 % of control

O=c1ccn(C2OC(CO)C(O)C2Cl)c(=O)[nH]1 (centres undefined)
inactive: dose: 6.25 mg/kg/injection, schedule: Q01DX009 (ip), vehicle: Klucel (hydroxypropylcellulose) (HPC) 101 % of control | dose: 12.5 mg/kg/injection, schedule: Q01DX009 (ip), vehicle: Klucel (hydroxypropylcellulose) (HPC) 104 % of control | dose: 25.0 mg/kg/injection, schedule: Q01DX009 (ip), vehicle: Klucel (hydroxypropylcellulose) (HPC) 109 % of control | dose: 50.0 mg/kg/injection, schedule: Q01DX009 (ip), vehicle: Klucel (hydroxypropylcellulose) (HPC) 105 % of control | dose: 100.0 mg/kg/injection, schedule: Q01DX009 (ip), vehicle: Klucel (hydroxypropylcellulose) (HPC) 101 % of control | dose: 200.0 mg/kg/injection, schedule: Q01DX009 (ip), vehicle: Klucel (hydroxypropylcellulose) (HPC) 104 % of control

COC1C(/C=C/c2cnc(N)s2)OC2OC(C)(C)OC21 (centres undefined)
inactive: dose: 100.0 mg/kg/injection, schedule: Q04DX002 (ip), vehicle: saline with Tween-80 102 % of control | dose: 200.0 mg/kg/injection, schedule: Q04DX002 (ip), vehicle: saline with Tween-80 102 % of control | dose: 400.0 mg/kg/injection, schedule: Q04DX002 (ip), vehicle: saline with Tween-80 115 % of control

CCCCCCCN(CCCCCCC)CC(O)c1c(OC)c2ccccc2c2ccccc12 (centres undefined)
inactive: dose: 25.0 mg/kg/injection, schedule: Q01DX009 (ip), vehicle: saline with Tween-80 89 % of control | [3] 88 % of control

C=C1C(=O)O[C@H]2[C@H]1[C@@H](OC(=O)C=C(C)C)CC1=C[C@@H](C[C@@]3(C)O[C@@H]23)OC1=O
inactive: [1] 92 % of control | [2] 100 % of control | [6] 99 % of control | [7] 101 % of control

CC1(C)C2CCC(CN)C1C2 (centres undefined)
inactive: dose: 12.5 mg/kg/injection, schedule: Q01DX009 (ip), vehicle: other 96 % of control | dose: 25.0 mg/kg/injection, schedule: Q01DX009 (ip), vehicle: other 97 % of control | dose: 50.0 mg/kg/injection, schedule: Q01DX009 (ip), vehicle: other 100 % of control

COc1ccc(C2=C(Cl)C(=O)N(c3ccccc3)C(=O)C2(Cl)Cl)cc1
inactive: dose: 100.0 mg/kg/injection, schedule: Q04DX002 (ip), vehicle: Klucel (hydroxypropylcellulose) (HPC) 103 % of control | dose: 200.0 mg/kg/injection, schedule: Q04DX002 (ip), vehicle: Klucel (hydroxypropylcellulose) (HPC) 107 % of control | dose: 400.0 mg/kg/injection, schedule: Q04DX002 (ip), vehicle: Klucel (hydroxypropylcellulose) (HPC) 107 % of control

CCCCC#CC(=O)OCC
inactive: dose: 60.0 mg/kg/injection, schedule: Q01DX005 (ip), vehicle: saline with Tween-80 101 % of control | dose: 120.0 mg/kg/injection, schedule: Q01DX005 (ip), vehicle: saline with Tween-80 106 % of control | dose: 240.0 mg/kg/injection, schedule: Q01DX005 (ip), vehicle: saline with Tween-80 113 % of control

N=C1CCC(=N)c2c1c(O)c1ccccc1c2O
inactive: [8] 94 % of control | [9] 104 % of control | [10] 94 % of control

O=C(C[n+]1ccn(CC(OCc2ccc(Cl)cc2Cl)c2ccc(Cl)cc2Cl)c1)c1ccc(F)cc1 (centres undefined)
inactive: dose: 3.12 mg/kg/injection, schedule: Q01DX005 (ip), vehicle: saline with Tween-80 101 % of control | [8] 95 % of control | [9] 95 % of control

CC1CCC(C(C)(C)c2ccccc2)CC1OC(=O)/C=C/CC(C)(C)CC=C1C2CCC1N(C(=O)OCC(Cl)(Cl)Cl)N2C(=O)OCC(Cl)(Cl)Cl (centres undefined)
inactive: [11] 89 % of control | [12] 89 % of control

COc1cc2c(cc1CN(C)C)[nH]c1c3ccc(Cl)cc3ncc21
inactive: [9] 104 % of control | [10] 103 % of control | [13] 109 % of control and 112 % of control

NNC(=O)C12CC3CC(CC(C3)C1)C2
inactive: [11] 105 % of control | [12] 105 % of control | [14] 102 % of control | [15] 112 % of control

CC1(C)N(/N=C/c2ccccc2)C(c2ccccc2)C(c2ccccc2)N1/N=C/c1ccccc1 (centres undefined)
inactive: [12] 86 % of control | [14] 89 % of control | [15] 87 % of control

C#CCN(CC#C)S(=O)(=O)c1ccc(C)cc1
inactive: [6] 104 % of control | [7] 108 % of control | [16] 108 % of control

CCCCN(CCCC)CCNc1ccc(C)c2sc3cc(C)ccc3c(=O)c12
inactive: [13] 116 % of control | dose: 100.0 mg/kg/injection, schedule: Q01DX005 (ip), vehicle: saline with Tween-80 102 % of control | dose: 200.0 mg/kg/injection, schedule: Q01DX005 (ip), vehicle: saline with Tween-80 98 % of control

CCCCCC1NC(C)(C)CO1 (centres undefined)
inactive: [17] 118 % of control | [18] 109 % of control | [19] 100 % of control

CC(=O)Nc1cc(C)cc(C(=O)O)c1C
inactive: [3] 97 % of control | [4] 100 % of control | [5] 98 % of control | dose: 400.0 mg/kg/injection, schedule: Q01DX009 (ip), vehicle: saline with Tween-80 98 % of control

O=C1c2ccccc2COC1c1ccccc1 (centres undefined)
inactive: [6] 108 % of control | [7] 111 % of control | [16] 118 % of control

CCS1=C(C(C)=O)C(=O)O[C@H](C)C1 (some centres undefined)
inactive: [17] 100 % of control | [18] 98 % of control | [19] 115 % of control

N#Cc1c2ccccc2cc[n+]1Cc1ccc2c(c1)OCO2
inactive: dose: 3.12 mg/kg/injection, schedule: Q04DX002 (ip), vehicle: Klucel (hydroxypropylcellulose) (HPC) 105 % of control | dose: 6.25 mg/kg/injection, schedule: Q04DX002 (ip), vehicle: Klucel (hydroxypropylcellulose) (HPC) 104 % of control | dose: 12.5 mg/kg/injection, schedule: Q04DX002 (ip), vehicle: Klucel (hydroxypropylcellulose) (HPC) 100 % of control and 106 % of control
